Data on two molecules can be found in US9303009B2, “Migrastatins and uses thereof” (Sloan-Kettering Institute for Cancer Research, priority 2011, dated 2016).

Molecules are shown by their SMILES.

For data set [1], the system named is A549 cells. Kind of data set: in vitro wound-healing (scratch) assay. The class given is cell-based, human. The conditions noted are these: for migration in response to a scratch wound: 100 μM. How it is done:
This Example evaluates the anti-metastatic properties of new migrastatin analogs by assessing their ability to inhibit in vitro cancer cell migration in a wound-healing assay and their chemotaxis in a transwell migration assay. […] Similar results were obtained with a panel of human lung cancer cell lines (H1975, H647, H522, H1703, data not shown).
For the results depicted in FIG. 3, A549 cancer cells were grown as nearly confluent monolayer culture and then starved overnight in medium containing 0.5% FCS. Cell monolayers were then scratched using pipette tip, photographed, and incubated with a 6 log-scaled concentration range of ME and CME from 10^−3 to 10^−8M, with or without 2% FCS. After 12 H, areas were fixed, stained and photographed using computer-assisted microscopy. Micrographs (4× magnification) are presented, showing the A549 cancer cell migration across the scratches in absence of serum (no migration), presence of serum (migration), and in the presence of serum plus CME or ME at 100 μM or 100 nM.
Wound-Healing Assay: Cancer cells migration was measured using an “in vitro wound-healing assay” (or scratch assay) performed in a 12-well plate (Becton Dickinson). Briefly, cancer cells were seeded at a density of 5-10×10^4 cells per well, grown to near confluent monolayers in 10% serum-supplemented M5 medium and then starved overnight in a low serum medium (0.5% FCS). Perpendicular wounds were scratched through the cell monolayer using a sterile 200 μL pipette tip. The cells were then washed twice very gently using PBS and the scratched areas were photographed at 4× and 20× magnification using computer-assisted microscopy. […] Each well was photographed at 4× and 20× magnification and the pictures analyzed with CellProfiler2.0 cell image analysis software as previously described, (Carpenter A E, Jones T R, Lamprecht M R, Clarke C, Kang I H et al. (2006), Genome Biology 7(10):R100). The migration in response to the test condition was calculated as cell coverage of the original cell-free zone and related to DMSO vehicle control.

The subject of data set [2] is A549. The data set can be described thus: transwell migration (modified Boyden chamber, serum gradient). The class given is cell-based. The settings on record: Homo sapiens, 12 hour migration, mean +/- SEM of three experiments, read-out: IC50, inhibition of transwell migration. How it is done:
(§1) Migration assay: Cancer cell chemotaxis was performed towards a serum gradient in a modified Boyden chamber consisting of a cell culture insert (6.4 mm diameter, 8-μm pore polyethylene tetraphtalate membrane, [Becton Dickenson]) seated in each well of a 24-well companion plate (Becton Dickinson). Briefly, cancer cells were grown as subconfluent monolayer cultures then starved for 36 hours in serum-free M5 medium. After detachment and dissociation with 5 mM EDTA, single-cell suspensions were prepared by filtration through a 35 μm mesh cell strainer (Becton Dickinson). Cells were counted and a total of 10^5 cells suspended in serum-free medium were seeded into the upper chamber of an insert, then positioned in a 24-well plate, containing medium with or without 10% serum. When used, drugs or DMSO (vehicle) were added to the medium at 0.2% in both chambers. Migration assays were carried out for 12 hours in a humidified incubator at 37° C. with 5% CO2. Cells were then fixed with 3.7% formaldehyde, permeabilized with ice cold methanol and stained with a 0.2% Crystal violet solution. Non-migratory cells on the upper side of the insert were removed with a cotton swab. For quantification, three randomly selected fields on the lower side of the insert were photographed at 4× and 20× magnification using computer-assisted microscopy, and analyzed with CellProfiler2.0 cell image analysis software). The migration in response to the test condition was calculated relative to the DMSO vehicle control.
(§2) This assay provided reproducibly robust data, allowing dose-response studies to be carried out to determine the half maximal inhibitory concentration (IC50). […] Because we noticed a mild toxicity and effects on cell proliferation in the millimolar range, experiments with CME and ME at 1 mM or more were not included for the IC50 calculation.
(§3) Lung Cancer cell lines chemotaxis was performed in cell culture inserts after serum starvation and an overnight preincubation with an incremental logarithmic scale of drug concentration (ME and CME from 10^−3 to 10^−10M). Cancer cell migration in response to a serum gradient was measured after a 12 hour-long incubation in presence of different concentrations of ME or CME in both upper and lower chamber (three wells at each dose). Cells were then fixed and stained with Crystal violet, and photographed. […] Data are expressed as the mean+/−SEM of three independent experiments. Each experiment was performed in triplicate.

The test system of data set [3] is H299. The data set is described as above. Format: cell-based. The settings on record: Homo sapiens, 12 hour migration, mean +/- SEM of three experiments, read-out: IC50, inhibition of transwell migration. How it is done: as §1, §2, §3
Data set [4] deals with H1975. The data set is described as above. Format: cell-based. The conditions noted are these: Homo sapiens, NCI-H1975, 12 hour migration, mean +/- SEM of three experiments, read-out: IC50, inhibition of transwell migration. How it is done:
as §1, with “When used, drugs or DMSO (vehicle) were added to the medium at 0.2% in both chambers. Migration assays were carried out for 12 hours in a humidified incubator at 37° C. with 5% CO2. Cells were then fixed with 3.7% formaldehyde, permeabilized with ice cold methanol and stained with a 0.2% Crystal violet solution. Non-migratory cells on the upper side of the insert were removed with a cotton swab.” left out, “control. […]” for “control.”
Lung Cancer cell lines chemotaxis was performed in cell culture inserts after serum starvation and an overnight preincubation with an incremental logarithmic scale of drug concentration (ME and CME from 10^−3 to 10^−10M). […] Data are expressed as the mean+/−SEM of three independent experiments. […]

Data set [5] has as its system multiple myeloma (RPMI8226, MM1S, ARP-GL, CAG-GL, OPM2-GL, SKO-007-GL, U266-GL, MM1R cells). The data set can be described thus: toxicity by alamarBlue, multiple myeloma cell lines. The conditions noted are these: mean of 8 cell lines. The class given is cell-based, human. The protocol: The toxicity of compounds 42-45 and their IC50 was determined on a panel of human tumor cell lines of multiple myeloma (RPMI8226, MM1S, MM1R, ARP-GL, CAG-GL, OPM2-GL, SKO-007-GL, U266-GL,) and lung cancer (H299-GL, H522-GL, H647-GL, A549-GL, A549-GL, HI993, H1075-GL, HI373, H17030) origin. Tumor cells were dissociated into a single-cell suspension by Trypsin/Collagenase IV treatment and 500 cells per well were aliquoted into each well of 384 microwell plates in 50 μl of RPMI medium with 10% FCS. Compounds 42-45 were dissolved in DMSO and serially diluted in RPMI medium plus 10% FCS and added (1 mM to 1 nM) to quadruplicate wells containing tumor cells. Dilutions of DMSO without compound were used as a control. After 18 hrs or 2 days, the cultures were pulsed with 6 μl of alamarBlue® (Invitrogen Inc. Grand Island, N.Y.) and incubated overnight. The alamarBlue® provides a cell growth indicator based on detection of metabolic activity. The assay system incorporates an oxidation-reduction indicator that both fluoresces and changes color in response to chemical reduction of growth medium resulting from cell growth. The fluorescence intensity was measured using a Synergy H1 Microplate Reader (Biotek Inc, Winooski, VT) and a dose-response curve established for IC50 determination.
(The colour change of resazurin is a common sign of viable cells or microbes.)

Consider `CO[C@H]1/C=C/CCCCCOC/C(C)=C\[C@@H](C)[C@@H]1OCC(=O)O` [CME, Carboxymethyl migraether], for which the “migration in response to a scratch wound” value in data set [1] was “almost completely blocked”. This molecule also showed an inhibition of migration in data set [1] (submicromolar concentrations) of 32%. Further, the IC50 turned out to be 660 ± 200 nM in data set [2], 5020 ± 1130 nM in data set [3] and 510 ± 420 nM in data set [4]. The entries for the “Estimated lethal doses (LD50)” value in data set [5] (18 h exposure) and in data set [5] (48 h exposure) were 503.6 µM and 452.9 µM, respectively.
Take `CO[C@H]1/C=C/CCCCCOC/C(C)=C\[C@@H](C)[C@@H]1O` [ME, migrastatin ether]: the “migration in response to a scratch wound” value in data set [1] is given as “almost completely blocked”. Further, the IC50 in data set [2] turned out to be 1930 ± 410 nM; in data set [3], 8200 ± 1750 nM; in data set [4], 1510 ± 690 nM. The “Estimated lethal doses (LD50)” value is 794.8 µM in data set [5] (18 h exposure) and 881.7 µM in data set [5] (48 h exposure).
